# From patent US20070134753A1, “Assay for determining the activity of fatty acid amide hydrolase” (priority 2002, published 2007)
# “And” between values parts separate entries of the source, which are not always exact repeats. Identical values can stand only once. Like-named read-outs stand apart in the source and are kept apart here.
# Experiments:
# [1] = molecular target: T1, human FAAH (Homo sapiens, UniProt O00519); assay: FAAH charcoal filter-plate assay with 3H-anandamide in T84 membranes; assay type: biochemical; settings: for IC50 values (in words): product inhibition
# T1 construct: T84 frozen pellets were homogenized in FAAH assay buffer; endogenous in cells; host or cells: T84 human colorectal carcinoma cells (ATCC CCL-248), homogenate/membranes
# T1 sequence (O00519 1-579): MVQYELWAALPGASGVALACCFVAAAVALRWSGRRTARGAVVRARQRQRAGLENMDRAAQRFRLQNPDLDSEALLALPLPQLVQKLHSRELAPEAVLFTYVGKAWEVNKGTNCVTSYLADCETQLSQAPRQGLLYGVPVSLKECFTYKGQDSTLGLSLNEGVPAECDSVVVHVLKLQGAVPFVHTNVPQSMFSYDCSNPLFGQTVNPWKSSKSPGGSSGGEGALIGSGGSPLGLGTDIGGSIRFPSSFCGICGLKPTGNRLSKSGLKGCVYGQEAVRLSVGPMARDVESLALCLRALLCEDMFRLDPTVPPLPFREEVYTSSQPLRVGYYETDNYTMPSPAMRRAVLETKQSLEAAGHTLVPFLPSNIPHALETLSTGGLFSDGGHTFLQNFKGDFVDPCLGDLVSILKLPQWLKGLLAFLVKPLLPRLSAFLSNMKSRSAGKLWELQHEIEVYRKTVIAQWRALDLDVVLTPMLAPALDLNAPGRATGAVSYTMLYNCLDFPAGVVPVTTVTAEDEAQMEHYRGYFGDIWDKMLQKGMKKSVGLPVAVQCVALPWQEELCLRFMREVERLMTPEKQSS
# [2] = molecular target: T2, FAAH (Rattus norvegicus, UniProt P97612); settings: cited from earlier work
# T2 sequence (P97612 1-579): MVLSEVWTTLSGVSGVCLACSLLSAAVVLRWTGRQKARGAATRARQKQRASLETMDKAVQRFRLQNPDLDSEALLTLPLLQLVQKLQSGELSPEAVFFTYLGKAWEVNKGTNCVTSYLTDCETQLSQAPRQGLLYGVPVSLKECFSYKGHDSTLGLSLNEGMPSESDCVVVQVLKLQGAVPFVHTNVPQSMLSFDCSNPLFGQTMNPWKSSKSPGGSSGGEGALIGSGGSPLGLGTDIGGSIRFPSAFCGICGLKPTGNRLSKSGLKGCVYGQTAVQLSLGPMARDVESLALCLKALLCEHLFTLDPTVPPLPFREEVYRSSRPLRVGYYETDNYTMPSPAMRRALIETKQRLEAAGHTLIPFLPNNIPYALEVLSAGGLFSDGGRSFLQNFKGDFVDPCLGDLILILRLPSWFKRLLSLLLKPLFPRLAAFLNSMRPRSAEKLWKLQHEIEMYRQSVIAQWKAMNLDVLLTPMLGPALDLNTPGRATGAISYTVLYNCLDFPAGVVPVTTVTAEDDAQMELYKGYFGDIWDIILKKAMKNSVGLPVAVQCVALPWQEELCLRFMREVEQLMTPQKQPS
# [3] = molecular target: T2, FAAH; design: other: literature data; settings: read-out: Literature (ref) IC50; cited from earlier work
# [4] = molecular target: T3, FAAH (Mus musculus, UniProt O08914); settings: cited from earlier work
# T3 construct: it abolished anandamide hydrolysis in N18 mouse neuroblastoma cells; host or cells: N18 mouse neuroblastoma cells
# T3 sequence (O08914 1-579): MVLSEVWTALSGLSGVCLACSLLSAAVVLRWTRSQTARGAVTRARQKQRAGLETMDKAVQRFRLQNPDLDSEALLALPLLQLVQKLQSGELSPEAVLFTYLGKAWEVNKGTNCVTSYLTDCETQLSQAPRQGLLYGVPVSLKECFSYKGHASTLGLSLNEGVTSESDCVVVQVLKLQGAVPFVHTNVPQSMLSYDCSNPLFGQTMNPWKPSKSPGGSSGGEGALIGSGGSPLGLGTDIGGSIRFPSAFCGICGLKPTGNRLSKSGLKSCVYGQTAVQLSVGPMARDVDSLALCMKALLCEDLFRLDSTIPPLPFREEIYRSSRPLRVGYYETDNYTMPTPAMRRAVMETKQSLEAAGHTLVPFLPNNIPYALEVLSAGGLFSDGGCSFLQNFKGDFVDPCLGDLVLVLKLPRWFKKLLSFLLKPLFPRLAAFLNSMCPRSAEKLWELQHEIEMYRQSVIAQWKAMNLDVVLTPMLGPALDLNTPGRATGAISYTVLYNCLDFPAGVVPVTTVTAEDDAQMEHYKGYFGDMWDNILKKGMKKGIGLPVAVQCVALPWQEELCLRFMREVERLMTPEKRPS
# [5] = molecular target: FAAH (Homo sapiens, UniProt O00519); settings: human brain; Maccarrone et al. 1999; cited from earlier work
# [6] = T84 membranes, room temperature 60 min, average ± S.E. of 2-5 experiments, each in triplicate, read-out: IC50
compound,measurement,setting,value
O=S(=O)(F)Cc1ccccc1 [Phenylmethylsulfonyl fluoride],IC50,[1]; IC50,16 µM
same,inhibition of the hydrolysis of rat brain microsomal anandamide,"[2]; at 25 μM, Desarnaud et al. 1995",48%
same,IC50,[3],1.2 to 69 µM
same,anandamide hydrolysis in N18 mouse neuroblastoma cells,"[4]; at a concentration of 100 μM, Maurelli et al. 1995",abolished
"CCCCCCCC/C=C\CCCCCCCCC(=O)C(F)(F)F [Oleyl trifluoromethyl ketone, oleyl trifluoromethyl ketone]",IC50,[3],0.039 µM and 0.024 to 0.041 µM
CCCCCCCC/C=C\CCCCCCCC(=O)O [Oleic acid],IC50 values (in words),[1]; T84 membranes,low micromolar range
same,IC50,[1]; [6],1.94 ± 0.401 µM
"CCCCC/C=C\C/C=C\C/C=C\C/C=C\CCCC(=O)NCCO [anandamide, N-arachidonoylethanolamine]",Km,[1]; read-out: Km of hydrolysis by FAAH,1.1 ± 0.17 µM
same,Km,[2],12.7 µM
same,Km,[5],2 µM
same,Km,[4],9 µM
same,activity of FAAH,[4],abolished
CCCCC/C=C\C/C=C\C/C=C\C/C=C\CCCC(=O)O [Arachidonic acid],IC50 values (in words),[1]; T84 membranes,low micromolar range
same,IC50,[1]; [6],0.931 ± 0.255 µM
